From PubChem BioAssay (NCI)
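GI50 marks 50% less growth. TGI denotes the concentration required for complete inhibition of growth.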

Legend:
Test in all cases: growth of human tumour cells (NCI), 384-well format
NCI-H322M lung = system: NCI-H322M lung
NCI-H460 NSCLC = system: NCI-H460 NSCLC
NCI-H522 lung = system: NCI-H522 lung
NCI/ADR-RES ovarian = system: NCI/ADR-RES ovarian
OVCAR-3 ovarian = system: OVCAR-3 ovarian
OVCAR-4 ovarian = system: OVCAR-4 ovarian
OVCAR-5 ovarian = system: OVCAR-5 ovarian
OVCAR-8 ovarian = system: OVCAR-8 ovarian
PC-3 prostate = system: PC-3 prostate
RPMI-8226 leukemia = system: RPMI-8226 leukemia
RXF 393 renal = system: RXF 393 renal
SF-268 CNS = system: SF-268 CNS
SF-295 CNS = system: SF-295 CNS
SF-539 CNS = system: SF-539 CNS
SK-MEL-2 melanoma = system: SK-MEL-2 melanoma
SK-MEL-28 melanoma = system: SK-MEL-28 melanoma
SK-MEL-5 melanoma = system: SK-MEL-5 melanoma
SK-OV-3 ovarian = system: SK-OV-3 ovarian
SN12C renal = system: SN12C renal
SNB-19 CNS = system: SNB-19 CNS
SNB-75 CNS = system: SNB-75 CNS
SR leukemia = system: SR leukemia
SW-620 colon = system: SW-620 colon
T-47D breast = system: T-47D breast
TK-10 renal = system: TK-10 renal
U251 glioblastoma = system: U251 glioblastoma
UACC-257 melanoma = system: UACC-257 melanoma
UACC-62 melanoma = system: UACC-62 melanoma

For `COCC1(CO)C(=O)C2CCN1CC2` (stereo unspecified), which GI50 (NCI-H322M lung) is on record?
The GI50 was 19.7 µM.

What about the TGI (NCI-H322M lung) of the same molecule?
Its TGI is 35.2 µM.

And the GI50 (NCI-H460 NSCLC)?
The GI50 was 17.4 µM.

And the TGI (NCI-H460 NSCLC)?
Its TGI is 31.6 µM.

And the GI50 (NCI-H522 lung)?
Its GI50 is 1.83 µM.

What about the TGI (NCI-H522 lung) of the same molecule?
Its TGI is 3.24 µM.

And the GI50 (NCI/ADR-RES ovarian)?
Its GI50 is 16.2 µM.

What about the TGI (NCI/ADR-RES ovarian) of the same molecule?
The TGI was 29.9 µM.

And the GI50 (OVCAR-3 ovarian)?
The GI50 was 14.6 µM.

And the TGI (OVCAR-3 ovarian)?
The TGI was 27.9 µM.

And the GI50 (OVCAR-4 ovarian)?
Its GI50 is 2.6 µM.

And the TGI (OVCAR-4 ovarian)?
Its TGI is 6.3 µM.

And the GI50 (OVCAR-5 ovarian)?
The GI50 was 16.5 µM.

What about the TGI (OVCAR-5 ovarian) of the same molecule?
The TGI was 30.2 µM.

What about the GI50 (OVCAR-8 ovarian) of the same molecule?
Its GI50 is 19.8 µM.

And the TGI (OVCAR-8 ovarian)?
The TGI was 34.1 µM.

And the GI50 (PC-3 prostate)?
Its GI50 is 19.1 µM.

And the TGI (PC-3 prostate)?
Its TGI is 33.3 µM.

What about the GI50 (RPMI-8226 leukemia) of the same molecule?
Its GI50 is 10.5 µM.

What about the TGI (RPMI-8226 leukemia) of the same molecule?
The TGI was 22.3 µM.

What about the GI50 (RXF 393 renal) of the same molecule?
Its GI50 is 2 µM.

What about the TGI (RXF 393 renal) of the same molecule?
Its TGI is 3.43 µM.

What about the GI50 (SF-268 CNS) of the same molecule?
Its GI50 is 20 µM.

What about the TGI (SF-268 CNS) of the same molecule?
The TGI was 34.2 µM.

What about the GI50 (SF-295 CNS) of the same molecule?
Its GI50 is 17.5 µM.

And the TGI (SF-295 CNS)?
The TGI was 31.6 µM.

And the GI50 (SF-539 CNS)?
The GI50 was 17.5 µM.

What about the TGI (SF-539 CNS) of the same molecule?
Its TGI is 31.3 µM.

And the GI50 (SK-MEL-2 melanoma)?
The GI50 was 2.62 µM.

And the TGI (SK-MEL-2 melanoma)?
Its TGI is 5.41 µM.

And the GI50 (SK-MEL-28 melanoma)?
Its GI50 is 20.6 µM.

What about the TGI (SK-MEL-28 melanoma) of the same molecule?
Its TGI is 35 µM.

What about the GI50 (SK-MEL-5 melanoma) of the same molecule?
The GI50 was 15.5 µM.

What about the TGI (SK-MEL-5 melanoma) of the same molecule?
The TGI was 29 µM.

And the GI50 (SK-OV-3 ovarian)?
The GI50 was 19.3 µM.

And the TGI (SK-OV-3 ovarian)?
Its TGI is 33.4 µM.

What about the GI50 (SN12C renal) of the same molecule?
Its GI50 is 15.3 µM.

What about the TGI (SN12C renal) of the same molecule?
The TGI was 28.8 µM.

And the GI50 (SNB-19 CNS)?
The GI50 was 17.5 µM.

What about the TGI (SNB-19 CNS) of the same molecule?
Its TGI is 31.5 µM.

What about the GI50 (SNB-75 CNS) of the same molecule?
The GI50 was 1.79 µM.

And the TGI (SNB-75 CNS)?
Its TGI is 3.73 µM.

What about the GI50 (SR leukemia) of the same molecule?
Its GI50 is 14.6 µM.

What about the TGI (SR leukemia) of the same molecule?
The TGI was 27.8 µM.

What about the GI50 (SW-620 colon) of the same molecule?
The GI50 was 14.2 µM.

What about the TGI (SW-620 colon) of the same molecule?
The TGI was 27.4 µM.

What about the GI50 (T-47D breast) of the same molecule?
Its GI50 is 1.58 µM.

And the TGI (T-47D breast)?
The TGI was 2.94 µM.

What about the GI50 (TK-10 renal) of the same molecule?
The GI50 was 17 µM.

What about the TGI (TK-10 renal) of the same molecule?
The TGI was 30.7 µM.

And the GI50 (U251 glioblastoma)?
The GI50 was 18.7 µM.

And the TGI (U251 glioblastoma)?
The TGI was 32.8 µM.

What about the GI50 (UACC-257 melanoma) of the same molecule?
The GI50 was 13.9 µM.

And the TGI (UACC-257 melanoma)?
Its TGI is 27 µM.

And the GI50 (UACC-62 melanoma)?
Its GI50 is 18.2 µM.

And the TGI (UACC-62 melanoma)?
The TGI was 32.2 µM.
